Among the data in ChEMBL document CHEMBL1649519, “Mitochondrial DNA depletion in rat liver induced by fosalvudine tidoxil, a novel nucleoside reverse transcriptase inhibitor prodrug” (Antimicrob Agents Chemother, 2009) are Activity values, retold here.

What all share (conditions): in vivo
The subject of data set [1] is Rattus norvegicus. The data set is described as follows: Toxicity in Sprague-Dawley rat assessed as mortality at 100 mg/kg, po administered via gavage. Set-up: dose 100 mg/kg, route oral. In kind it is organism-based.
The subject of data set [2] is Rattus norvegicus. The data set is described as follows: Toxicity in Sprague-Dawley rat assessed as terminal body weight at 100 mg/kg, po administered via gavage (reference value: 517 +/- 55 g). Further details: dose 100 mg/kg, route oral. It is filed as organism-based.
The subject of data set [3] is Rattus norvegicus. As to the kind of experiment: Toxicity in Sprague-Dawley rat assessed as liver weight at 100 mg/kg, po administered via gavage (reference value: 18 +/- 2.8 g). It is filed as organism-based. Set-up: dose 100 mg/kg, route oral.
In data set [4] the test system is Rattus norvegicus. The data set is described as follows: Hepatotoxicity in Sprague-Dawley rat assessed as plasma GPT level at 100 mg/kg, po administered via gavage (reference value: 78.3 +/- 8.2 U/l). Set-up: dose 100 mg/kg, route oral. It is filed as toxicity, organism-based.
Data set [5] relates to Rattus norvegicus. As to the kind of experiment: Hepatotoxicity in Sprague-Dawley rat assessed as effect on plasma total bilirubin level at 15 to 100 mg/kg, po administered via gavage. Set-up: dose 15-100 mg/kg, route oral. It is filed as toxicity, organism-based.
Data set [6] relates to Rattus norvegicus. As to the kind of experiment: Hepatotoxicity in Sprague-Dawley rat assessed as copies of mitochondrial DNA per cell in liver at 100 mg/kg, po administered via gavage (reference value: 400 +/- 86 no_unit). In kind it is toxicity, organism-based. Further details: dose 100 mg/kg, route oral.
Data set [7] has as its system Rattus norvegicus. The data set is described as follows: Hepatotoxicity in Sprague-Dawley rat assessed as copies of mitochondrial DNA per cell in gastrocnemius muscle at 100 mg/kg, po administered via gavage (reference value: 457 +/- 182 no_unit). It is filed as toxicity, organism-based. Set-up: dose 100 mg/kg, route oral.
Data set [8] has as its system Rattus norvegicus. The data set is described as follows: Hepatotoxicity in Sprague-Dawley rat assessed as copies of mitochondrial DNA per cell in inguinal fat pads at 100 mg/kg, po administered via gavage (reference value: 457 +/- 182 no_unit). Set-up: dose 100 mg/kg, route oral. In kind it is toxicity, organism-based, Fat pad.
For data set [9], the system named is Rattus norvegicus. The data set is described as follows: Hepatotoxicity in Sprague-Dawley rat assessed as copies of mitochondrial DNA per cell in sciatic nerves at 100 mg/kg, po administered via gavage (reference value: 457 +/- 182 no_unit). It is filed as toxicity, organism-based, Sciatic nerve. Set-up: dose 100 mg/kg, route oral.
In data set [10] the test system is Rattus norvegicus. The data set is described as follows: Toxicity in Sprague-Dawley rat assessed as mortality at 15 mg/kg, po administered via gavage. In kind it is organism-based. Further details: dose 15 mg/kg, route oral.
In data set [11] the test system is Rattus norvegicus. The data set is described as follows: Toxicity in Sprague-Dawley rat assessed as mortality at 40 mg/kg, po administered via gavage. In kind it is organism-based. Set-up: dose 40 mg/kg, route oral.
Data set [12] relates to Rattus norvegicus. The data set is described as follows: Toxicity in Sprague-Dawley rat assessed as terminal body weight at 15 mg/kg, po administered via gavage (reference value: 517 +/- 55 g). In kind it is organism-based. Further details: dose 15 mg/kg, route oral.
Data set [13] has as its system Rattus norvegicus. As to the kind of experiment: Toxicity in Sprague-Dawley rat assessed as terminal body weight at 40 mg/kg, po administered via gavage (reference value: 517 +/- 55 g). It is filed as organism-based. Further details: dose 40 mg/kg, route oral.
The subject of data set [14] is Rattus norvegicus. The data set is described as follows: Toxicity in Sprague-Dawley rat assessed as liver weight at 15 mg/kg, po administered via gavage (reference value: 18 +/- 2.8 g). In kind it is organism-based. Set-up: dose 15 mg/kg, route oral.
Data set [15] concerns Rattus norvegicus. As to the kind of experiment: Toxicity in Sprague-Dawley rat assessed as liver weight at 40 mg/kg, po administered via gavage (reference value: 18 +/- 2.8 g). In kind it is organism-based. Further details: dose 40 mg/kg, route oral.
Data set [16] relates to Rattus norvegicus. The data set is described as follows: Hepatotoxicity in Sprague-Dawley rat assessed as plasma GPT level at 15 mg/kg, po administered via gavage (reference value: 78.3 +/- 8.2 U/l). Further details: dose 15 mg/kg, route oral. In kind it is toxicity, organism-based.
The test system of data set [17] is Rattus norvegicus. The data set is described as follows: Hepatotoxicity in Sprague-Dawley rat assessed as plasma GPT level at 40 mg/kg, po administered via gavage (reference value: 78.3 +/- 8.2 U/l). In kind it is toxicity, organism-based. Further details: dose 40 mg/kg, route oral.
Data set [18] has as its system Rattus norvegicus. The data set is described as follows: Hepatotoxicity in Sprague-Dawley rat assessed as copies of mitochondrial DNA per cell in liver at 15 mg/kg, po administered via gavage (reference value: 400 +/- 86). It is filed as toxicity, organism-based. Further details: dose 15 mg/kg, route oral.
The test system of data set [19] is Rattus norvegicus. As to the kind of experiment: Hepatotoxicity in Sprague-Dawley rat assessed as copies of mitochondrial DNA per cell in liver at 40 mg/kg, po administered via gavage (reference value: 400 +/- 86). It is filed as toxicity, organism-based. Further details: dose 40 mg/kg, route oral.
Data set [20] has as its system Rattus norvegicus. The data set is described as follows: Hepatotoxicity in Sprague-Dawley rat assessed as copies of mitochondrial DNA per cell in gastrocnemius muscle at 15 mg/kg, po administered via gavage (reference value: 457 +/- 182 no_unit). Further details: dose 15 mg/kg, route oral. In kind it is toxicity, organism-based.
Data set [21] concerns Rattus norvegicus. The data set is described as follows: Hepatotoxicity in Sprague-Dawley rat assessed as copies of mitochondrial DNA per cell in gastrocnemius muscle at 40 mg/kg, po administered via gavage (reference value: 457 +/- 182 no_unit). It is filed as toxicity, organism-based. Set-up: dose 40 mg/kg, route oral.
For data set [22], the system named is Rattus norvegicus. As to the kind of experiment: Hepatotoxicity in Sprague-Dawley rat assessed as copies of mitochondrial DNA per cell in inguinal fat pads at 15 mg/kg, po administered via gavage (reference value: 457 +/- 182 no_unit). Further details: dose 15 mg/kg, route oral. It is filed as toxicity, organism-based, Fat pad.
Data set [23] deals with Rattus norvegicus. As to the kind of experiment: Hepatotoxicity in Sprague-Dawley rat assessed as copies of mitochondrial DNA per cell in inguinal fat pads at 40 mg/kg, po administered via gavage (reference value: 457 +/- 182 no_unit). In kind it is toxicity, organism-based, Fat pad. Set-up: dose 40 mg/kg, route oral.
Data set [24] concerns Rattus norvegicus. As to the kind of experiment: Hepatotoxicity in Sprague-Dawley rat assessed as copies of mitochondrial DNA per cell in sciatic nerves at 15 mg/kg, po administered via gavage (reference value: 457 +/- 182 no_unit). It is filed as toxicity, organism-based, Sciatic nerve. Further details: dose 15 mg/kg, route oral.
The test system of data set [25] is Rattus norvegicus. As to the kind of experiment: Hepatotoxicity in Sprague-Dawley rat assessed as copies of mitochondrial DNA per cell in sciatic nerves at 40 mg/kg, po administered via gavage (reference value: 457 +/- 182 no_unit). It is filed as toxicity, organism-based, Sciatic nerve. Set-up: dose 40 mg/kg, route oral.

SMILES strings stand for the structures.

Turning to `O=c1[nH]cnc2c1ncn2[C@H]1CC[C@@H](CO)O1` [DIDANOSINE], the Activity result is “Non-toxic” in the data set on Rattus norvegicus [1]; 501 g in the data set on Rattus norvegicus [2]; 16.2 g with Rattus norvegicus [3]; 68.8 U/L in the data set with Rattus norvegicus [4]; “Non-toxic” in the data set with Rattus norvegicus [5]; 193 in the data set with Rattus norvegicus [6]. Moreover, the Activity stood at 489 in the data set on Rattus norvegicus [7], 129 in the data set with Rattus norvegicus [8] and 219 in the data set with Rattus norvegicus [9].

For `CCCCCCCCCCCCSC[C@@H](COP(=O)(O)OC[C@H]1O[C@@H](n2cc(C)c(=O)[nH]c2=O)C[C@@H]1F)OCCCCCCCCCC` [FOSALVUDINE TIDOXIL], the Activity entry with Rattus norvegicus [10] is “Toxic”; in the data set with Rattus norvegicus [11], “Toxic”; in the data set on Rattus norvegicus [1], “Toxic”; in the data set with Rattus norvegicus [12], 459 g; with Rattus norvegicus [13] it was 465 g; in the data set with Rattus norvegicus [2] it was 428 g. Besides, the Activity came to 16.8 g in the data set with Rattus norvegicus [14]; 15.6 g with Rattus norvegicus [15]; 14.5 g with Rattus norvegicus [3]; 71 U/l with Rattus norvegicus [16]; 80.5 U/L in the data set on Rattus norvegicus [17]; 96.7 U/L in the data set with Rattus norvegicus [4]. Moreover, the Activity entry in the data set with Rattus norvegicus [5] was “Non-toxic”; with Rattus norvegicus [18], 249; in the data set on Rattus norvegicus [19], 254; in the data set on Rattus norvegicus [6] it was 188; with Rattus norvegicus [20], 475; with Rattus norvegicus [21], 534. Besides, the Activity was 548 in the data set with Rattus norvegicus [7]; 134 in the data set with Rattus norvegicus [22]; 159 in the data set with Rattus norvegicus [23]; 158 in the data set on Rattus norvegicus [8]; 196 with Rattus norvegicus [24]; 205 with Rattus norvegicus [25]. In addition, in the data set with Rattus norvegicus [9], the Activity is 213.
